This note sets out measurements from PubChem BioAssay (NCI).

Holding throughout (assay): growth of human tumour cells (NCI), 48 h
Assay [1] has as its system A498 renal.
In assay [2] the test system is COLO 205 colon.
Assay [3] deals with HS 578T breast.
In assay [4] the test system is HT29 colon.
The subject of assay [5] is IGROV1 ovarian.
For assay [6], the system named is NCI-H226 lung.
Assay [7] relates to RXF 393 renal.
For assay [8], the system named is SF-268 CNS.
Assay [9] concerns SR leukemia.
The subject of assay [10] is UO-31 renal.

Values joined by “and” are separate entries in the source; they are usually repeats but may differ in a detail not shown here. Equal entries are not always repeated.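 Compound exposure: 48 hours, 5 concentrations, 96-well plates. GI50 = concentration required for 50% inhibition of growth. TGI is the concentration that stops growth completely.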

Consider `CN(C)c1ccc(/C=C(\C#N)c2nc3ccccc3n2C)cc1`, for which the GI50 was 0.729 µM in [1]; 1.63 µM in assay [2]; 2.84 µM in [3]; 0.742 µM in assay [4]; 5.13 µM in assay [5]; 9.22 µM in assay [6]. The GI50 in assay [7] is 2.77 µM; in [8] it was 5.96 µM; in assay [9], 0.279 µM; in [10] it was 6.96 µM. Moreover, the TGI was 6.82 µM in assay [1]; 9.26 µM in assay [2]; > 26.5 µM in assay [3]; > 33.3 µM in [4]; > 100 µM in assay [5]; > 81.3 µM in [6]. Also, the TGI is > 24.8 µM in [7], > 95.1 µM in assay [8], > 100 µM in [9] and > 100 µM in [10].

Consider `CC(=O)OCC(=O)O[C@@H]1C[C@]2(C(C)C)O[C@@]1(C)[C@@H]1CC[C@@H](C)[C@H]1[C@@H]2OC(=O)/C=C/c1ccccc1`, for which the GI50 in assay [1] is < 0.0399 µM; in assay [2], 24.2 µM; in [3], < 0.0116 µM; in assay [4], 23.6 µM; in assay [5] it was 42.5 µM; in [6], 10.6 µM. For the same compound, the GI50 in [7] is 0.211 µM; in assay [8], 2.65 µM; in assay [9], 12.2 µM; in assay [10] it was 0.0336 µM. Further, the TGI in [1] is 0.472 µM; in [2], 84.6 µM; in assay [3] it was 0.0363 µM; in [4], > 100 µM; in assay [5] it was > 100 µM; in [6], 37.1 µM. In addition, the TGI was 2.01 µM in [7], 62.2 µM in [8], > 95.9 µM in assay [9] and 0.242 µM in assay [10].

In the case of `CN(N=O)C(=O)N[C@@H](C=O)[C@@H](O)[C@H](O)[C@H](O)CO`, the TGI is > 628 µM in assay [1]; 640 µM and > 750 µM in assay [2]; > 750 µM in assay [3]; > 750 µM in assay [4]; > 750 µM in assay [5]; > 750 µM in assay [6]. Further, the TGI in [7], in assay [8], in assay [9] and in assay [10] was > 750 µM each time. The GI50 in assay [2], in [4], in [5], in [6], in assay [7] and in assay [8] was > 750 µM each time. In addition, in assay [10], the GI50 was > 750 µM.

Take `COC(=O)[C@]12CC[C@@H](C)[C@H](C)[C@@H]1C1=CC[C@@H]3[C@@]4(C)C(C=O)=C[C@@](C)(COC(=O)c5ccco5)[C@@H]4C(=O)C[C@@]3(C)[C@]1(C)CC2`: the GI50 is 12.1 µM in assay [1]; 0.0314 µM in assay [2]; 9.68 µM in [3]; 7.92 µM in assay [4]; 7.66 µM in assay [5]; 2.63 µM in assay [6]. For the same compound, the GI50 in [7] was 3.35 µM; in assay [8], 7.03 µM; in assay [9], 3.12 µM; in [10], 3.54 µM. For the same compound, the TGI in [1] was 94.7 µM; in [2] it was 0.0971 µM; in [3] it was > 100 µM; in assay [4] it was > 100 µM; in assay [5] it was > 100 µM; in [6], 12.6 µM. Moreover, the TGI in [7] is 35.3 µM; in assay [8] it was > 100 µM; in [9], 39.4 µM; in assay [10] it was > 100 µM.

On to `CN1CCN(Cc2ccc(NC(=O)c3cncc(C#Cc4cncc5ncccc45)c3)cc2C(F)(F)F)CC1`, for which the GI50 in assay [1] was 0.323 µM; in assay [2] it was 1.11 µM; in assay [3] it was 1.36 µM; in assay [4] it was 1.04 µM; in assay [5] it was 1.16 µM; in [6] it was 0.467 µM. For the same compound, the GI50 was 1.77 µM in assay [7], 3.99 µM in [8], 3.23 µM in assay [9] and 1.25 µM in assay [10]. The TGI is 3.43 µM in [1]; 13.2 µM in assay [2]; 7.93 µM in assay [3]; 11.9 µM in assay [4]; 7.45 µM in assay [5]; 11.8 µM in assay [6]. The TGI was found to be 6.46 µM in [7], 17.6 µM in assay [8], 34.6 µM in assay [9] and 6.35 µM in assay [10].

For the compound `Cc1ccc(C)c(NC(=O)NCc2ccc(Cl)cc2)c1`, the TGI is 88.4 µM in assay [1]; > 100 µM in assay [2]; > 100 µM in [3]; > 100 µM in [4]; > 100 µM in assay [5]; 98.8 µM in [6]. Moreover, the TGI was 28.6 µM in assay [7], > 100 µM in [8], 27.8 µM in assay [9] and > 100 µM in [10].

For `Cn1cc(C2=C(c3cccnc3)C(=O)NC2=O)c2ccccc21`, the GI50 in [1] was 9.03 µM; in assay [2], > 18.3 µM; in assay [3], 8.14 µM; in [4], > 25 µM; in assay [5] it was 24.3 µM; in assay [6], 8.15 µM. Further, the GI50 is 5.63 µM in assay [7], > 25 µM in assay [8], 15.5 µM in [9] and > 25 µM in assay [10]. For the same compound, the TGI was > 22.9 µM in assay [1]; > 25 µM in assay [2]; > 25 µM in [3]; > 25 µM in assay [4]; > 25 µM in assay [5]; > 19.2 µM in [6]. Moreover, the TGI in assay [7] was > 17.9 µM; in [8], > 25 µM; in assay [9], > 25 µM; in assay [10], > 25 µM.

`CN=C(NC#N)NCCSCc1nc[nH]c1C`: the TGI in assay [1], in [2], in [3], in assay [4], in assay [5] and in assay [6] was > 100 µM throughout. The TGI in assay [7], in assay [8], in assay [9] and in assay [10] was > 100 µM in each case.

Consider `Cc1cnc(/C=N\NC(N)=S)c2cccc(N)c12`, for which the GI50 was 2.04 µM in [1]; 3.23 µM in [2]; > 58 µM in [3]; 5.11 µM in assay [4]; 2.4 µM in assay [5]; 2.39 µM in assay [6]. In addition, the GI50 in assay [7] was 2.47 µM; in assay [8], 1.51 µM; in assay [9] it was 0.587 µM; in assay [10] it was 1.88 µM. Further, the TGI in [1], in assay [2], in assay [3], in assay [4], in assay [5] and in [6] was > 100 µM throughout. In addition, the TGI was > 100 µM in [7]; > 100 µM in assay [8]; 10.3 µM and 4.4 µM in [10].

`C[C@@H]1CC[C@@H]2[C@@H]1[C@H](OC(=O)/C=C/c1ccccc1)[C@]1(C3CCCCC3)C[C@@H](NC(=O)CO)[C@@]2(C)O1`: the GI50 in [1] is 2.19 µM; in assay [2], 16.6 µM; in [3], 2.79 µM; in [4], 18.9 µM; in assay [5], 17.9 µM; in assay [6] it was 16.7 µM. In addition, the GI50 in [7] is 3.29 µM; in assay [8] it was 14.3 µM; in [9], 19.8 µM; in assay [10] it was 4.8 µM. Also, the TGI was determined as 6.61 µM in assay [1]; 33.5 µM in assay [2]; 9.21 µM in assay [3]; 35.5 µM in [4]; 35.5 µM in [5]; 32.4 µM in [6]. Further, the TGI came to 13.8 µM in assay [7], 30 µM in [8], 41.2 µM in assay [9] and 18.7 µM in assay [10].

Regarding `N#Cc1ccc(N2Cc3ccccc3OC3=C2C(=O)c2c(O)ccc(O)c2C3=O)cc1`, the GI50 in [1] was 1.79 µM; in [2], 0.0907 µM; in [3], 1.16 µM; in [4], 0.258 µM; in assay [5], 0.497 µM; in [6], 0.282 µM. Also, the GI50 in assay [7] was 0.157 µM; in [8], 0.598 µM; in [9], 0.0563 µM; in assay [10], 0.166 µM. Besides, the TGI is 4.13 µM in [1]; 0.268 µM in assay [2]; 7.07 µM in assay [3]; 0.875 µM in [4]; 1.36 µM in assay [5]; 1.13 µM in [6]. The TGI in assay [7] stood at 0.313 µM; in assay [8] it was 1.72 µM; in assay [10] it was 0.357 µM.

With `CCOC(=O)/C=C/c1cc2cc(-c3csc4ccccc34)ccc2[nH]1`, the GI50 in assay [1] is 12 µM; in assay [2], 7.16 µM; in assay [3] it was 5.07 µM; in assay [4] it was 3.39 µM; in assay [5] it was 4.62 µM; in assay [6] it was 10.6 µM. Besides, the GI50 in assay [7] is 3.86 µM; in assay [8] it was 11 µM; in [9], 1.98 µM; in [10], 4.94 µM. Further, the TGI in assay [1] is 24.6 µM; in assay [2], 21.3 µM; in [3] it was 22.2 µM; in assay [4], 11.6 µM; in [5], 17.4 µM; in assay [6] it was 32.7 µM. Also, the TGI in assay [8] was determined as 26.6 µM; in assay [9], 8.04 µM; in assay [10], 19.1 µM.
